Patent US12691095B2, “Modulators of TNF-alpha activity” (Forward Therapeutics, Inc., priority 2024, dated 2026)

How the values were obtained:
[1] = target: T1, TNF-α (Homo sapiens, UniProt P01375); assay: TNF-α Induced HEK Blue Cellular Assay; format: cell-based; conditions: HEK Blue TNFα reporter cells stimulated with TNF-α, 24 hrs, secreted alkaline phosphatase (QUANTI-Blue, 620 nm)
T1 construct: purchased R&D 210-TA-020/CF
Experimental: (§1) Test articles were diluted in DMSO and serially diluted into 384 well assay plate (Corning 3765), at final concentrations ranging from […] to 0.5 nM. HEK Blue™ TNFα reporter cells were added at a final density of 10,000 cell per well in assay media [DMEM (Gibco, cat #21063-029), 10% fetal bovine serum (ExcelBio, cat #FND500), 1% Penicillin-Streptomycin (Solarbio, cat #P1400-100]. TNF-α (R&D 210-TA-020/CF) was then added to the assay plate at a final concentration of […]. This plate was then incubated for 24 hrs at 37° C. and 5% CO2. Secreted alkaline phosphatase expression was then measured using QUANTI- Blue™ (Invivogen), according to manufacturer instructions and read on an Envision microplate reader at 620 nm.
(§2) Inhibition data for test compound over a range of concentration was plotted as percentage inhibition of the test compound (100%=maximum inhibition). IC50 values were determined after correcting for background [(sample read-mean of low control)/(mean of high control-mean of low control)] where by the low control is DMSO without stimulation and high control is DMSO with stimulation. The IC50 is defined as the concentration of test compound which produces 50% inhibition and was quantified using the 4 parameter logistic equation to fit the data.

[2] = target: T1, TNF-α; assay: TNF-α Induced THP 1 dual Cellular Assay; format: cell-based; conditions: THP1 dual cell reporter cells stimulated with TNF-α, 24 hrs, secreted alkaline phosphatase (QUANTI-Blue, 620 nm)
Experimental: as §1, with “THP1 dual cell” for “HEK Blue™ TNFα”, “QUANTI-Blue™” for “QUANTI- Blue™”
as §2, with “whereby” for “where by”, “4-parameter” for “4 parameter”

T1 sequence (P01375 77-233 limits assumed): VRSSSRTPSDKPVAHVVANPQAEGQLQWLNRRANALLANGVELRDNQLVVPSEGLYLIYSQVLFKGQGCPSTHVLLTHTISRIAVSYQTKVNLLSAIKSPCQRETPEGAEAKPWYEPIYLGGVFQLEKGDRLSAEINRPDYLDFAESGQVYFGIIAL

SMILES | IC50 [1] [nM] | IC50 [2] [nM]
[2H]C([2H])([2H])N1C(=O)c2cccc(Cl)c2[C@H]2C[C@@H]1c1nc3ccc(-c4ccc(P(C)(C)=O)nc4)cc3n12 [Example 2, (7R,14R)-1-chloro-11-(6-(dimethylphosphoryl)pyridin-3-yl)-6-(methyl-d3)-6,7-dihydro-7,14-methanobenzo[f]benzo[4,5]imidazo[1,2-a][1,4]diazocin-5(14H)-one] | ≤ 100 | 
CP(C)(=O)c1ncc(-c2ccc3nc4n(c3c2)[C@@H]2C[C@H]4NC(=O)c3cccc(Cl)c32)cn1 [Example 4, (7R,14R)-1-chloro-11-(2-(dimethylphosphoryl)pyrimidin-5-yl)-6,7-dihydro-7,14-methanobenzo[f]benzo[4,5]imidazo[1,2-a][1,4]diazocin-5(14H)-one] | ≤ 100 | 
CP(C)(=O)c1ccc(-c2ccc3nc4n(c3c2)[C@@H]2C[C@H]4NC(=O)c3cccc(Cl)c32)cn1 [Example 5, (7R,14R)-1-chloro-11-(6-(dimethylphosphoryl)pyridin-3-yl)-6,7-dihydro-7,14-methanobenzo[f]benzo[4,5]imidazo[1,2-a][1,4]diazocin-5(14H)-one] | ≤ 100 | 
[2H]C([2H])([2H])N1C(=O)c2ccc(F)c(F)c2[C@H]2C[C@@H]1c1nc3ccc(-c4ccc(P(C)(C)=O)c(F)c4)cc3n12 [Example 15, (7R,14R)-11-(4-(dimethylphosphoryl)-3-fluorophenyl)-1,2-difluoro-6-(methyl-d3)-6,7-dihydro-7,14-methanobenzo[f]benzo[4,5]imidazo[1,2-a][1,4]diazocin-5(14H)-one] |  | ≤ 100
[2H]C([2H])([2H])N1C(=O)c2cccc(Br)c2[C@H]2C[C@@H]1c1nc3ccc(-c4ccc(P(C)(C)=O)c(F)c4)cc3n12 [Example 18, (7R,14R)-1-bromo-11-(4-(dimethylphosphoryl)-3-fluorophenyl)-6-(methyl-d3)-6,7-dihydro-7,14-methanobenzo[f]benzo[4,5]imidazo[1,2-a][1,4]diazocin-5(14H)-one] |  | ≤ 100
[2H]C([2H])([2H])N1C(=O)c2cccc(F)c2[C@H]2C[C@@H]1c1nc3cc(F)c(-c4ccc(P(C)(C)=O)cc4)cc3n12 [Example 20, (7R,14R)-11-(4-(dimethylphosphoryl)phenyl)-1,10-difluoro-6-(methyl-d3)-6,7-dihydro-7,14-methanobenzo[f]benzo[4,5]imidazo[1,2-a][1,4]diazocin-5(14H)-one] |  | ≤ 100
[2H]C([2H])([2H])N1C(=O)c2cccc(F)c2[C@H]2C[C@@H]1c1nc3cc(F)c(-c4ccc(P(C)(C)=O)nc4)cc3n12 [Example 21, (7R,14R)-11-(6-(dimethylphosphoryl)pyridin-3-yl)-1,10-difluoro-6-(methyl-d3)-6,7-dihydro-7,14-methanobenzo[f]benzo[4,5]imidazo[1,2-a][1,4]diazocin-5(14H)-one] |  | ≤ 100
[2H]C([2H])([2H])N1C(=O)c2cccc(F)c2[C@H]2C[C@]1(C)c1nc3ccc(-c4ccc(P(C)(C)=O)c(F)c4)cc3n12 [Example 22, (7R,14R)-11-(4-(dimethylphosphoryl)-3-fluorophenyl)-1-fluoro-7-methyl-6-(methyl-d3)-6,7-dihydro-7,14-methanobenzo[f]benzo[4,5]imidazo[1,2-a][1,4]diazocin-5(14H)-one] |  | ≤ 100
[2H]C([2H])([2H])N1C(=O)c2cccc(F)c2[C@H]2C[C@@H]1c1nc3ccc(-c4ccc(P(C)(C)=O)c(N)c4)cc3n12 [Example 24, (7R,14R)-11-(3-amino-4-(dimethylphosphoryl)phenyl)-1-fluoro-6-(methyl-d3)-6,7-dihydro-7,14-methanobenzo[f]benzo[4,5]imidazo[1,2-a][1,4]diazocin-5(14H)-one] |  | ≤ 100

Continued, values first:

IC50 [1] [nM] | IC50 [2] [nM] | SMILES
≤ 100 |  | [2H]C([2H])([2H])N1C(=O)c2cccc(Cl)c2[C@H]2C[C@@H]1c1nc3ccc(-c4ccc(P(C)(C)=O)c(F)c4)cc3n12 [Example 1, (7R,14R)-1-chloro-11-(4-(dimethylphosphoryl)-3-fluorophenyl)-6-(methyl-d3)-6,7-dihydro-7,14-methanobenzo[f]benzo[4,5]imidazo[1,2-a][1,4]diazocin-5(14H)-one]
≤ 100 |  | [2H]C([2H])([2H])N1C(=O)c2c(C)ccc(Cl)c2[C@H]2C[C@@H]1c1nc3ccc(-c4ccc(P(C)(C)=O)c(F)c4)cc3n12 [Example 3, (7R,14R)-1-chloro-11-(4-(dimethylphosphoryl)-3-fluorophenyl)-4-methyl-6-(methyl-d3)-6,7-dihydro-7,14-methanobenzo[f]benzo[4,5]imidazo[1,2-a][1,4]diazocin-5(14H)-one]
 | ≤ 100 | [2H]C([2H])([2H])N1C(=O)c2cc(F)cc(F)c2[C@H]2C[C@@H]1c1nc3ccc(-c4ccc(P(C)(C)=O)c(F)c4)cc3n12 [Example 13, (7R,14R)-11-(4-(dimethylphosphoryl)-3-fluorophenyl)-1,3-difluoro-6-(methyl-d3)-6,7-dihydro-7,14-methanobenzo[f]benzo[4,5]imidazo[1,2-a][1,4]diazocin-5(14H)-one]
 | ≤ 100 | [2H]C([2H])([2H])N1C(=O)c2cccc(F)c2[C@H]2C[C@@H]1c1nc3ccc(-c4ccc(P(C)(C)=O)c(F)c4F)cc3n12 [Example 14, (7R,14R)-11-(4-(dimethylphosphoryl)-2,3-difluorophenyl)-1-fluoro-6-(methyl-d3)-6,7-dihydro-7,14-methanobenzo[f]benzo[4,5]imidazo[1,2-a][1,4]diazocin-5(14H)-one]
 | ≤ 100 | [2H]C([2H])([2H])N1C(=O)c2cccc(F)c2[C@H]2C[C@@H]1c1nc3ccc(-c4ccc(P(C)(C)=O)cc4)cc3n12 [Example 16, (7R,14R)-11-(4-(dimethylphosphoryl)phenyl)-1-fluoro-6-(methyl-d3)-6,7-dihydro-7,14-methanobenzo[f]benzo[4,5]imidazo[1,2-a][1,4]diazocin-5(14H)-one]
 | ≤ 100 | [2H]C([2H])([2H])N1C(=O)c2cccc(F)c2[C@H]2C[C@@H]1c1nc3ccc(-c4ccc(P(C)(C)=O)cc4F)cc3n12 [Example 17, (7R,14R)-11-(4-(dimethylphosphoryl)-2-fluorophenyl)-1-fluoro-6-(methyl-d3)-6,7-dihydro-7,14-methanobenzo[f]benzo[4,5]imidazo[1,2-a][1,4]diazocin-5(14H)-one]
 | ≤ 100 | [2H]C([2H])([2H])N1C(=O)c2cccc(Br)c2[C@H]2C[C@@H]1c1nc3ccc(-c4ccc(P(C)(C)=O)cc4F)cc3n12 [Example 19, (7R,14R)-1-bromo-11-(4-(dimethylphosphoryl)-2-fluorophenyl)-6-(methyl-d3)-6,7-dihydro-7,14-methanobenzo[f]benzo[4,5]imidazo[1,2-a][1,4]diazocin-5(14H)-one]
 | ≤ 100 | [2H]C([2H])([2H])N1C(=O)c2cccc(F)c2[C@H]2C[C@@H]1c1nc3cc(F)c(-c4ccc(P(C)(C)=O)c(F)c4)cc3n12 [Example 23, (7R,14R)-11-(4-(dimethylphosphoryl)-3-fluorophenyl)-1,10-difluoro-6-(methyl-d3)-6,7-dihydro-7,14-methanobenzo[f]benzo[4,5]imidazo[1,2-a][1,4]diazocin-5(14H)-one]
 | ≤ 100 | [2H]C([2H])([2H])N1C(=O)c2cccc(F)c2[C@H]2C[C@@H]1c1nc3ccc(-c4ccc(P(C)(C)=O)c(NC)c4)cc3n12 [Example 25, (7R,14R)-11-(4-(dimethylphosphoryl)-3-(methylamino)phenyl)-1-fluoro-6-(methyl-d3)-6,7-dihydro-7,14-methanobenzo[f]benzo[4,5]imidazo[1,2-a][1,4]diazocin-5(14H)-one]
